The target of one assay is T1, recombinant human MMP-13 (Homo sapiens, UniProt P45452).
T1 construct: made in house
In words: In vitro metalloprotease inhibition, fluorogenic peptide assay (MMP-13). In kind it is biochemical. Particulars: recombinant human MMP-13, APMA activated; fluorogenic MCA peptide substrate 4 uM; pH 7.5, room temperature. As to the method: (§1) Certain of the compounds prepared in the manner described in Examples 1 to 223 were tested for activity by an in vitro assay. Following the procedures of Knight et al., FEBS Lett. 296(3):263 (1992). Briefly, 4-aminophenylmercuric acetate (APMA) or trypsin activated MMPs were incubated with various concentrations of the inhibitor compound at room temperature for 5 minutes (0.02% 2-mercapto-ethanol added to buffer for thiol compounds with 5 minutes or overnight incubation). More specifically, recombinant human MMP-13 and MMP-1 enzymes were prepared in laboratories of the inventors' employer. MMP-13 was expressed in baculovirus as a proenzyme, and purified first over a heparin agarose column and then over a chelating zinc chloride column. The proenzyme was activated by APMA for use in the assay. MMP-1 expressed in transfected HT-1080 was provided by Dr. Howard Welgus of Washington University, St. Louis, Mo. The enzyme was also activated using APMA and was then purified over a hydroxamic acid column.
(§2) The enzyme substrate is a methoxycoumarin-containing polypeptide having the following sequence:
(§3) MCA-ProLeuGlyLeuDpaAlaArgNH^2, wherein MCA is methoxycoumarin and Dpa is 3-(2,4-dinitrophenyl)-L-2,3-diaminopropionyl alanine. This substrate is commercially available from Baychem as product M-1895.
(§4) The buffer used for assays contained 100 mM Tris-HCl, 100 mM NaCl, 10 mM CaCl2 and 0.05 percent polyethyleneglycol(23) lauryl ether at a pH value of 7.5. Assays were carried out at room temperature, and dimethyl sulfoxide (DMSO) at a final concentration of 1 percent was used to dissolve inhibitor compound.
(§5) The assayed inhibitor compound in DMSO/buffer solution was compared to an equal amount of DMSO/buffer with no inhibitor as control using microfluor™ white plates (Dynatech). The inhibitor or control solution was maintained in the plate for 10 minutes and the substrate was added to provide a final concentration of 4 uM.
(§6) In the absence of inhibitor activity, a fluorogenic peptide is cleaved at the gly-leu peptide bond, separating the highly fluorogenic peptide from a 2.4-dinitrophenyl quencher, resulting in an increase of fluorescence intensity (excitation at 328 nm/emmision at 415 nm). Inhibition was measured as a reduction in fluorescent intensity as a function of inhibitor concentration, using a Perkin Elmer L550 plate reader. The IC50 values were calculated from those values. The results are set forth in the Inhibition Table below, reported in terms of IC50 to three significant figures.

For the next assay, the target named is T2, recombinant human MMP-1 (Homo sapiens, UniProt P03956).
T2 construct: made in house; host or cells: transfected HT-1080 cells (provided by Dr. Howard Welgus, Washington University)
T2 sequence (P03956 100-469): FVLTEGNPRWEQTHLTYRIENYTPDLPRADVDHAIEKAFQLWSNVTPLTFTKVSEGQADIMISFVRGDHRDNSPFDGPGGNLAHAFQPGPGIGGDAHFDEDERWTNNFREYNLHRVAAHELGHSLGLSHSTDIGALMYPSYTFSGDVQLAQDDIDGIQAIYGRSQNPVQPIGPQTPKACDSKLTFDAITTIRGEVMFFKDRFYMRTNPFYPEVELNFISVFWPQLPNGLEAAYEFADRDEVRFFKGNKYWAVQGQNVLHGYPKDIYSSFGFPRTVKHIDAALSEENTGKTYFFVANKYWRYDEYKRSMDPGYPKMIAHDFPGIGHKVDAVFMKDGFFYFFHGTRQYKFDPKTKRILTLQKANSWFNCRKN
In words: In vitro metalloprotease inhibition, fluorogenic peptide assay (MMP-1). In kind it is biochemical. The note with it: recombinant human MMP-1, APMA activated; fluorogenic MCA peptide substrate 4 uM; pH 7.5, room temperature. The procedure:
as §1, §2, §3, §4, §5, §6

For orientation: IC50 means the concentration that gives 50% inhibition. In the case of `COc1ccc(S(=O)(=O)N(Cc2ccccc2)C(CS)CC(C)C)cc1` (racemic) [Example 29F, N-[1-(Mercaptomethyl)-3-methylbutyl]-N-(phenylmethyl)-4-methoxybenzenesulfonamide], the values for the IC50 at recombinant human MMP-13 and on recombinant human MMP-1 were 1.8 µM and 8 µM, respectively.

Take `COc1ccc(S(=O)(=O)N(Cc2ccccc2)[C@H](C)CS)cc1` (racemic) [Example 56, N-(2-Mercapto-1R,S-methylethyl)-N-phenylmethyl-4-methoxybenzenesulfonamide benzenesulfonamide]: the IC50 amounted to 0.0675 µM on recombinant human MMP-13 and 2 µM on recombinant human MMP-1.

For `C[C@H](CS)NS(=O)(=O)c1ccccc1` (single isomer, unassigned) [Example 151], the IC50 on recombinant human MMP-13 was above 10 µM.

Turning to `COc1ccc(S(=O)(=O)N(CCS)Cc2ccccc2)cc1` [Example 7C, N-(2-Mercaptoethyl)-N-(phenylmethyl)-4-methoxybenzenesulfonamide], the IC50 at recombinant human MMP-13 was 0.3 µM; at recombinant human MMP-1, 4 µM.

Consider `CCCCCN(CCS)S(=O)(=O)c1ccc(OC)cc1` [Example 8, N-(2-Mercaptoethyl)-N-pentyl-4-methoxybenzenesulfonamide], for which the figures for the IC50 at recombinant human MMP-13 and at recombinant human MMP-1 were 0.065 µM and 4.2 µM, respectively.

On to `COc1ccc(S(=O)(=O)N(Cc2ccccc2)CC(C)S)cc1` (stereo not shown) [Example 10], for which the IC50 at recombinant human MMP-13 was found to be 0.55 µM.

Take `COc1ccc(S(=O)(=O)N(C)[C@H](C)CS)cc1` [Example 11D, N-(2-Mercapto-1R-methylethyl)-N-methyl-4-methoxybenzenesulfonamide]: the IC50 amounted to 0.0325 µM on recombinant human MMP-13 and 0.3 µM on recombinant human MMP-1.

In the case of `C[C@H](CS)NS(=O)(=O)c1ccc(Cl)cc1` [Example 64, N-(2-mercapto-1R-methylethyl)-4-chlorobenzenesulfonamide], the IC50 on recombinant human MMP-13 worked out at 0.9 µM.

Take `C[C@H](CS)NS(=O)(=O)c1ccc(I)cc1` [Example 66, N-(2-mercapto-1R-methylethyl)-4-iodobenzenesulfonamide]: the IC50 at recombinant human MMP-13 worked out at 0.038 µM.

As to `CCc1ccc(S(=O)(=O)N[C@H](C)CS)cc1` [Example 67, N-(2-mercapto-1R-methylethyl)-4-ethylbenzenesulfonamide], the IC50 on recombinant human MMP-13 is 0.57 µM.

For `CC(C)c1ccc(S(=O)(=O)N[C@H](C)CS)cc1` [Example 72, N-(2-mercapto-1R-methylethyl)-4-isopropylbenzenesulfonamide], the IC50 on recombinant human MMP-13 worked out at 2.3 µM.

On to `C[C@H](CS)NS(=O)(=O)c1ccc(C(F)(F)F)cc1` [Example 73, N-(2-mercapto-1R-methylethyl)-4-(trifluoromethyl)-benzenesulfonamide], for which the IC50 on recombinant human MMP-13 is 2.1 µM.

Regarding `C[C@H](CS)NS(=O)(=O)c1ccc(C(C)(C)C)cc1` [Example 74, N-(2-mercapto-1R-methylethyl)-4-(t-butyl)benzenesulfonamide], the IC50 at recombinant human MMP-13 was above 10 µM.

In the case of `Cc1cc(C)c(S(=O)(=O)N[C@H](C)CS)c(C)c1` [Example 79, N-(2-mercapto-1R-methylethyl)-2,4,6-trimethyl-benzenesulfonamide], the IC50 at recombinant human MMP-13 was above 10 µM.

Take `CC(C)c1cc(C(C)C)c(S(=O)(=O)N[C@H](C)CS)c(C(C)C)c1` [Example 80, N-(2-mercapto-1R-methylethyl)-2,4,6-triisopropyl-benzenesulfonamide]: the IC50 at recombinant human MMP-13 was above 10 µM.

For the compound `C[C@H](CS)NS(=O)(=O)c1ccc(F)c(F)c1` [Example 81, N-(2-mercapto-1R-methylethyl)-3,4-difluoro-benzenesulfonamide], the IC50 on recombinant human MMP-13 turned out to be 6.5 µM.

For the compound `C[C@H](CS)NS(=O)(=O)c1ccc(Br)s1` [Example 85, N-(2-mercapto-1R-methylethyl)-5-bromo-2-thiophenesulfonamide], on recombinant human MMP-13, the 50% inhibitory concentration (IC50) amounted to 9 µM.

`C[C@H](CS)NS(=O)(=O)c1ccc(Cl)s1` [Example 86, N-(2-mercapto-1R-methylethyl)-5-chloro-2-thiophenesulfonamide]: on recombinant human MMP-13, the IC50 was 1.7 µM.

In the case of `C[C@H](CS)NS(=O)(=O)c1sc(Br)cc1Br` [Example 87, N-(2-mercapto-1R-methylethyl)-3,5-dibromo-2-thiophenesulfonamide], the IC50 on recombinant human MMP-13 was 8.5 µM.

For `C[C@H](CS)NS(=O)(=O)c1ccc(-c2ccon2)s1` [Example 88, N-(2-mercapto-1R-methylethyl)-5-(isoxazol-3-yl)-2-thiophenesulfonamide], the IC50 on recombinant human MMP-13 was determined as 0.365 µM.

Take `C[C@H](CS)NS(=O)(=O)c1ccc2oc3ccccc3c2c1` [Example 90, N-(2-mercapto-1R-methylethyl)-2-dibenzofuransulfonamide]: the half-maximal inhibitory concentration (IC50) on recombinant human MMP-13 amounted to 0.6 µM.

For the compound `COc1ccc(S(=O)(=O)N(CCCS)Cc2ccccc2)cc1` [Example 97], at recombinant human MMP-13, the IC50 came out at 4 µM.

In the case of `COc1ccc(S(=O)(=O)N(CCCSC(C)=O)Cc2ccccc2)cc1` [Example 98], at recombinant human MMP-13, the IC50 was above 10 µM.

In the case of `C[C@H](CS)NS(=O)(=O)c1ccc(OCC(F)(F)F)cc1OCC(F)(F)F` [Example 104], at recombinant human MMP-13, the IC50 was above 10 µM.

As to `CCCCCCCCCCCCCCCCOc1ccc(S(=O)(=O)N[C@H](C)CS)cc1` [Example 105], at recombinant human MMP-13, the IC50 stood at 3.5 µM.

Turning to `C[C@H](CS)NS(=O)(=O)c1ccc(Oc2cccc(Cl)c2C#N)cc1` [Example 108], at recombinant human MMP-13, the IC50 is 0.5 µM.

For the compound `COc1ccc(S(=O)(=O)N[C@H](C)CS)c([N+](=O)[O-])c1` [Example 109], the IC50 on recombinant human MMP-13 was above 10 µM.

Turning to `C[C@H](CS)NS(=O)(=O)c1ccc(CNC(=O)c2ccccc2)s1` [Example 146], the IC50 on recombinant human MMP-13 was above 10 µM.

As for `C[C@H](CS)NS(=O)(=O)c1ccc(C(F)(F)F)cn1` [Example 148], the IC50 on recombinant human MMP-13 was above 10 µM.

In the case of `C[C@H](CS)NS(=O)(=O)c1cc(C(F)(F)F)n(C)n1` [Example 149], the IC50 at recombinant human MMP-13 is above 10 µM.

On to `CSc1nccc(S(=O)(=O)N[C@H](C)CS)n1` [Example 150], for which the IC50 at recombinant human MMP-13 was found to be 9 µM.

`C[C@H](CS)NS(=O)(=O)c1cc(Br)c(Cl)s1` [Example 152]: the IC50 at recombinant human MMP-13 worked out at 3 µM.

As for `C[C@H](CS)NS(=O)(=O)c1ccc(CNC(=O)c2ccc(Cl)cc2)s1` [Example 153], the IC50 on recombinant human MMP-13 was above 10 µM.

Turning to `CCc1cc(Br)ccc1S(=O)(=O)N[C@H](C)CS` [Example 195], the IC50 on recombinant human MMP-13 came out at 0.464 µM.

As for `C[C@H](CS)NS(=O)(=O)c1ccccc1C(F)(F)F` [Example 196], the IC50 at recombinant human MMP-13 is above 10 µM.

In the case of `COC(=O)c1ccccc1S(=O)(=O)N[C@H](C)CS` [Example 198], the IC50 on recombinant human MMP-13 was 2.3 µM.

Take `C[C@H](CS)NS(=O)(=O)c1ccc(Br)cc1OC(F)(F)F` [Example 204]: on recombinant human MMP-13, the IC50 is above 10 µM.

Turning to `C[C@H](CS)NS(=O)(=O)c1cccc2cccnc12` [Example 206], the IC50 at recombinant human MMP-13 was above 10 µM.

As for `CCCCOc1cc(C(C)(C)CC(C)(C)C)ccc1S(=O)(=O)N[C@H](C)CS` [Example 207], on recombinant human MMP-13, the IC50 was above 10 µM.

In the case of `CCCCOc1ccc(S(=O)(=O)N[C@@H](CS)C(=O)O)cc1` [Example 210], on recombinant human MMP-13, the IC50 came out at 1.32 µM.

As for `C[C@H](CS)NS(=O)(=O)c1cn(C)cn1` [Example 214], at recombinant human MMP-13, the IC50 was above 10 µM.

For “N-(2-mercapto-1R-methylethyl)-2-(trifluoromethyoxy)-benzenesulfonamide [Example 77]”, the IC50 at recombinant human MMP-13 is above 10 µM.

For the compound “N-(2-mercapto-1R-methylethyl)-2-napthylenesulfonamide [Example 83]”, the IC50 on recombinant human MMP-13 is 1.15 µM.

As for “N-(2-mercapto-1R-methylethyl)-4-(n-butyl)benzenesulfonamide [Example 69]”, the IC50 at recombinant human MMP-13 was 0.175 µM.

The values are drawn from patent US6747027B1, “Thiol sulfonamide metalloprotease inhibitors” (Pharmacia Corporation, priority 1996, dated 2004).
